Assay results: patent US20250276962A1, “CONTRACEPTIVE COMPOUNDS AND METHODS” (Regents of the University of Minnesota, priority 2021, published 2025)
Several values for one entry are separate records, joined by “and”; a condition that tells them apart may be missing. Equal values may be shown once. Entries after “also recorded” stand apart in the source; their conditions may differ. Read-outs that look alike come from different tables or passages of the source.

Key:
in vitro [1] = conditions: mouse hepatocytes
[2] = Solubility in saline and 50% carbitol; format: physicochemical
in vitro [3] = conditions: human
in vivo = conditions: male, Beagle, dog, oral
[4] = not given; remark: listed apart in the source
[5] = Stability in dog hepatocytes; format: in vitro ADME; conditions: read-out: Half-life (T1/2) Hepatocytes (Phase I and Phase II metabolism)
male cynomolgus macaques [6] = conditions: cynomolgus monkey, in vivo
[7] = target: monoamine oxidase A (MAO-A) (Homo sapiens, UniProt P21397); test: Off-target screening, MAO-A; format: biochemical
[8] = Stability in monkey liver microsomes; format: in vitro ADME; conditions: read-out: Half-life (T1/2) Liver microsomes (Phase I metabolism) (converted)
in vitro [9] = conditions: human hepatocytes
male cynomolgus macaques [10] = test: Cynomolgus macaque study with sperm counts per ejaculate as readout; format: in vivo
Procedure: Sperm counts were assessed weekly or bi-weekly in fresh semen samples obtained with electroejaculation. 3 macaques were orally dosed with 2.5 mg/kg, which is the dose equivalent to 10 mg/kg in mouse based on body surface area. […] The animals are now in recovery to assess reversibility (data not shown). […] After dosing for another week at 7.5 mg/kg/day, individual sperm counts were 132, 38 and 12×10^6 showing efficacy in all 3 animals. Since day 38, the animals have been in recovery to assess reversibility. Four weeks after the animals received the last dose, individual sperm counts were 297, 71 and 300×10^6 showing 50% reversibility in animal #1, 65% reversibility in animal #2 and 100% reversibility in animal #3.

[11] = Repeat dose PK (14 days), rat; format: in vivo; conditions: male, Sprague-Dawley, plasma, oral, Day 14, read-out: AUC0-48
[12] = target: cannabinoid receptor 1 (CB1) (Homo sapiens, UniProt P21554); test: Off-target screening, CB1; format: cell-based
[13] = Single dose toxicity, mouse; conditions: male, CD-1, mouse, in vivo, Maximum tolerated dose (MTD), male CD-1 mice, highest dose level tested
[14] = Stability in rat hepatocytes; format: in vitro ADME; conditions: read-out: Half-life (T1/2) Hepatocytes (Phase I and Phase II metabolism) (converted)
cyclooxygenase 1 (COX1) = cyclooxygenase 1 (COX1) (Homo sapiens, UniProt P23219); test: Off-target screening, COX1; format: biochemical
cyclooxygenase 2 (COX2) = cyclooxygenase 2 (COX2) (Homo sapiens, UniProt P35354); test: Off-target screening, COX2; format: biochemical
[15] = target: cannabinoid receptor 2 (CB2) (Homo sapiens, UniProt P34972); test: Off-target screening, CB2; format: cell-based
hERG = hERG (Homo sapiens, UniProt Q12809); test: in vitro; conditions: human
Procedure: (§1) The potential inhibitory effect on human Ether-á-go-go related gene (hERG) channel was evaluated using a manual patch-clamp system. A HEK293 cell line stably transfected with hERG gene was employed.

[16] = target: human Ether-á-go-go related gene (hERG) channel (Homo sapiens, UniProt Q12809); test: cell-based
Procedure: as §1

[17] = Solubility in PBS at pH 7.4; format: physicochemical
[18] = Single dose PK, cynomolgus macaque; format: in vivo
Procedure: (§2) NHP studies: Three young adult male marmosets received a single 5 mg/kg dose of the compound of Example land the compound of 3 sexually mature male cynomolgus macaques received a single dose of 0.5, 1, 5 and 10 mg/kg.

Single dose PK, marmoset = format: in vivo; conditions: male, monkey, plasma, Marmoset 5 mg/kg
Procedure: as §2

male CD-1 mice = test: Mouse studies with epididymal sperm count as readout; conditions: 10 mg/kg/day for 4 weeks

hERG, sequence (Q12809 whole entry): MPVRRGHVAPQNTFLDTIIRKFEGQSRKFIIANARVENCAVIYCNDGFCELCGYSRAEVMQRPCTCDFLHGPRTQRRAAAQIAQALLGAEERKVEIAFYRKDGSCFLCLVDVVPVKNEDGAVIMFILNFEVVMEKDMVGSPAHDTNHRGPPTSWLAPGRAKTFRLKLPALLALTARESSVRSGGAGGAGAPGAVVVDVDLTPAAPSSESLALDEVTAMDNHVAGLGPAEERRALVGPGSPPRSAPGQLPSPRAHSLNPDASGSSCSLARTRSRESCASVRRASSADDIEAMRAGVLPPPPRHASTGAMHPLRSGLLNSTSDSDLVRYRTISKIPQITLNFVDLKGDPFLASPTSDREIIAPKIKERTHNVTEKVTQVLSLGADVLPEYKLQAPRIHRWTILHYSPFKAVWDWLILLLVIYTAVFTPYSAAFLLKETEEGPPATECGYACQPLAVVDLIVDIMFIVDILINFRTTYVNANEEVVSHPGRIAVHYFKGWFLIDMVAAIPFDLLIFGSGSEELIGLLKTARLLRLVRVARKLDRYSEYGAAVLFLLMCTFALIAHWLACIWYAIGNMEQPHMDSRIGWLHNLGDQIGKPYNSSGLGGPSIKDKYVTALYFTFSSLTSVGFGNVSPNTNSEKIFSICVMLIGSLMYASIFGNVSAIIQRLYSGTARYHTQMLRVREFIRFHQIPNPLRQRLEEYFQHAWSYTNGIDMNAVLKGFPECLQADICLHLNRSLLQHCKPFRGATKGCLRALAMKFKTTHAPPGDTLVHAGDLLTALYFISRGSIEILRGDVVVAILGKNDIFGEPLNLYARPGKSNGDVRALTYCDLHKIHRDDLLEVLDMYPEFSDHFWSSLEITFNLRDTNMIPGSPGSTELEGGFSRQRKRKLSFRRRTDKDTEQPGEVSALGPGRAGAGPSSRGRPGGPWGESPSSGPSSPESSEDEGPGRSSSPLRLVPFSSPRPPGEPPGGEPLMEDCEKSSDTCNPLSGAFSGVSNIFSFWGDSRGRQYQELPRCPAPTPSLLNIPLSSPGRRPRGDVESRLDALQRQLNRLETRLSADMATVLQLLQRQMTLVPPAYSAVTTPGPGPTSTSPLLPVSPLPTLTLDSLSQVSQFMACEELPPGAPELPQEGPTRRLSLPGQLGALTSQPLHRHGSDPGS
human Ether-á-go-go related gene (hERG) channel, sequence (Q12809 whole entry): as above
cannabinoid receptor 1 (CB1), sequence (P21554 whole entry, species assumed): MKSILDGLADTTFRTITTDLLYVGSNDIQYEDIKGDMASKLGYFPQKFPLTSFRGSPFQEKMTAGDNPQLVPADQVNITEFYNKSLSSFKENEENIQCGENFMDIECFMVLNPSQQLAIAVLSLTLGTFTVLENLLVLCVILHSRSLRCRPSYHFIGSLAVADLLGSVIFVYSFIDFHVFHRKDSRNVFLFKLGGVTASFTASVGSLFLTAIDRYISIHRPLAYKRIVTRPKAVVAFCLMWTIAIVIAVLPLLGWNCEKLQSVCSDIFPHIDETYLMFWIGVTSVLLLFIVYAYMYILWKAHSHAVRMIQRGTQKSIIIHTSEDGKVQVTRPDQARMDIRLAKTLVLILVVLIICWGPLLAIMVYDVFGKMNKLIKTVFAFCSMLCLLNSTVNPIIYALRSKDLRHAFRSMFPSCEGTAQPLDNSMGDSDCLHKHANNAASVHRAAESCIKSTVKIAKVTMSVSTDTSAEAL
cyclooxygenase 2 (COX2), sequence (P35354 18-604, species assumed): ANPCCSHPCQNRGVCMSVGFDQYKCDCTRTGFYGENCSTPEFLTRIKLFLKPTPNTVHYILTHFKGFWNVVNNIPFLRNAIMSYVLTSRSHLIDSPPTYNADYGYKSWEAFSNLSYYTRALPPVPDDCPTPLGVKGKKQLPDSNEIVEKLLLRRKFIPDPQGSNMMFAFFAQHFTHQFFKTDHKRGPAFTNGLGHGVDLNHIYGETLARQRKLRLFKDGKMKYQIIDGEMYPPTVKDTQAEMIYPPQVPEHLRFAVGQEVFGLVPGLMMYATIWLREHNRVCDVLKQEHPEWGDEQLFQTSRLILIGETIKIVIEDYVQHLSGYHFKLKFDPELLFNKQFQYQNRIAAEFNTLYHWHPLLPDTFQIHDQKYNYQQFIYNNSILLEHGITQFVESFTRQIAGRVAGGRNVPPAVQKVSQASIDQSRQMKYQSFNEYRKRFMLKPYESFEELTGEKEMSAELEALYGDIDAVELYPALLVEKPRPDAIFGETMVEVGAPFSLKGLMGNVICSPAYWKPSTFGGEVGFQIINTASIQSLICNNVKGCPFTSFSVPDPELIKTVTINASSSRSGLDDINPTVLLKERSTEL
cyclooxygenase 1 (COX1), sequence (P23219 24-599, species assumed): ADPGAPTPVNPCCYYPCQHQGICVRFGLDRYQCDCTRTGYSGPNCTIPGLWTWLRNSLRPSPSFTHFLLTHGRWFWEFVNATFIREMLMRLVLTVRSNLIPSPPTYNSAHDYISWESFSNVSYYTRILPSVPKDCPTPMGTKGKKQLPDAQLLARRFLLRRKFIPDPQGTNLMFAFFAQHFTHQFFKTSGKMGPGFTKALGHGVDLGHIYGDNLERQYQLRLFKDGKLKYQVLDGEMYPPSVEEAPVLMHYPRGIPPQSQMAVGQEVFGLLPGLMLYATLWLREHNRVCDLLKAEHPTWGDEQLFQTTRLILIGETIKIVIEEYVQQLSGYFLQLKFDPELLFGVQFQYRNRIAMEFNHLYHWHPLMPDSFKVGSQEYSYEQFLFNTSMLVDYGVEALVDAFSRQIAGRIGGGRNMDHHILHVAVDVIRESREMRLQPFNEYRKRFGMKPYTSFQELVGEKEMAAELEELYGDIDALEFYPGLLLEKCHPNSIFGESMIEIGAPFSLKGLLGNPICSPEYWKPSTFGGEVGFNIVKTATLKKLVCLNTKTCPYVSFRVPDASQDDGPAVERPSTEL
monoamine oxidase A (MAO-A), sequence (P21397 whole entry, species assumed): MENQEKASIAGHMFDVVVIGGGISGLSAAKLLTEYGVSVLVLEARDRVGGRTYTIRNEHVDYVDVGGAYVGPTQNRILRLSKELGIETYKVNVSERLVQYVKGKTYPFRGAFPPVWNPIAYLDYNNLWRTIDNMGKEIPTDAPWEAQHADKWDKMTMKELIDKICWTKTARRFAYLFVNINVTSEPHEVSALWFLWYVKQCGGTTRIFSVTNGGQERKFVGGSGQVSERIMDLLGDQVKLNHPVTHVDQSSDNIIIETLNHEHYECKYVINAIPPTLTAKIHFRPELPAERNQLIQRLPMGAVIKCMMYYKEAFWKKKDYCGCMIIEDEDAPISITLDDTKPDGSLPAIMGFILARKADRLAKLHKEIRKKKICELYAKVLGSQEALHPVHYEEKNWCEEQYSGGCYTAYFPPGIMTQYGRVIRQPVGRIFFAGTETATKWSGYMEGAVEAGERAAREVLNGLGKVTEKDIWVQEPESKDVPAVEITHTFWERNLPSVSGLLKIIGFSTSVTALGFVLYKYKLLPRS
cannabinoid receptor 2 (CB2), sequence (P34972 whole entry, species assumed): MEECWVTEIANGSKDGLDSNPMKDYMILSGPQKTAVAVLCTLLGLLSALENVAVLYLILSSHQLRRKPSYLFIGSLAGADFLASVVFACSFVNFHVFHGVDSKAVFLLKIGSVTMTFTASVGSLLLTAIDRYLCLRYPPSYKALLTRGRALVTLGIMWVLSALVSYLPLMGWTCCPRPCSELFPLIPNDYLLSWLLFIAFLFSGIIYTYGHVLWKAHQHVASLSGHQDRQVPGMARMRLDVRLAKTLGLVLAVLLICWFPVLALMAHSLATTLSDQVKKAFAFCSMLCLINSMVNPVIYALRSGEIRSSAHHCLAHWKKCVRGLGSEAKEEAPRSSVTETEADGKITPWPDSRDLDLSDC

In the case of Cc1ccc(C2=CC(C)(C)Oc3ccc(-c4ccc(-c5ccc(C(=O)[O-])cc5)[nH]4)cc32)cc1.[Na+] [Example 1, Sodium 4-(5-(2,2-dimethyl-4-(p-tolyl)-2H-chromen-6-yl)-1H-pyrrol-2-yl)benzoate], the CLint scaled (in vitro [1]) is reported as 56.5 mL/min/kg, the solubility ([2]; 50% carbitol [2-(2-ethoxyethoxy)ethanol], aqueous with cosolvent or surfactant or cyclodextrin, in 50% carbitol [2-(2-ethoxyethoxy)ethanol, read-out: Solubility) is reported as over 100 mg/mL and the solubility ([2]; saline, saline or isotonic, in saline, read-out: Solubility) is reported as at most 100 mg/mL. For the same compound, the solubility ([2]; saline, saline or isotonic, saline, read-out: Solubility (saline)) was 2 mg/mL, the CLint scaled (in vitro [3]; microsomes) was 3.05 mL/min/kg and the half-life (in vitro [3]; pooled liver microsomes) was 570 min. For the same compound, the “Half-life (T1/2) Hepatocytes (Phase I and Phase II metabolism)” value (mouse) was 4.8 h, the “In vitro Clint (μL/min/10^6 cells)” value (mouse hepatocytes) was 4.79 μL/min/10^6 cells and the “In vitro T1/2” value (mouse hepatocytes) was 289.56 min. The MTD at 2 weeks (in vivo) was 25 mg/kg, the “Half-life (T1/2) Liver microsomes (Phase I metabolism)” value ([4]; human) was 9.5 h and the “CLint (μL/min/mg protein)” value ([4]; pooled human liver microsomes) was 2.43 μL/min/mg protein. For the same compound, the “T1/2” value ([4]; pooled human liver microsomes) was 569.64 min, the half-life [5] was over 600 min and the “Repeat dose observations (behaviour, body weight, CBC, clinical chemistry)” value (male cynomolgus macaques [6]) was “behaved normally and had no substantial changes in body weight, CBC parameters or clinical chemistry parameters”. The IC50 [7] was 24.6 µM, the inhibition at 10 µM ([7]; 10 μM) was 45.8% and the half-life [8] was 1390 min. The CLint scaled (in vitro [9]) was 6.75 mL/min/kg, the Safety margin (male Sprague-Dawley rats; male, Sprague-Dawley, rat, in vivo, 14 days) was “at least 10 ×” and the “Tolerability after dose reduction to 75 mg/kg” value (male Sprague-Dawley rats; rat, in vivo) was “overall health and activity improved, they gained weight, and had normal CBC and clinical chemistry”. For the same compound, the Tolerability (male Sprague-Dawley rats; rat, in vivo, 250 mg/kg/day) was “not tolerated”, the Tolerability (male Sprague-Dawley rats; rat, in vivo, po, 25 mg/kg/day) was “tolerated well” and the Tolerability (male Sprague-Dawley rats; rat, in vivo, po, 50 mg/kg/day) was “tolerated well”. The “Tolerated dose on repeated dosing for 14 days” value (male Sprague-Dawley rats; rats) was 50 to 75 mg/kg, the “Individual sperm counts per ejaculate” value (male cynomolgus macaques [10]; second cohort (initial 598, 203 and 277), 5 mg/kg/day, after 14 days, 5 mg/kg/day) was 377 ×10^6 and 62 ×10^6 and 134 ×10^6 and the “Individual sperm counts per ejaculate” value (male cynomolgus macaques [10]; second cohort, 5 mg/kg/day, after 30 days, 5 mg/kg/day) was 262 ×10^6 and 28 ×10^6 and 70 ×10^6. The “Individual sperm counts per ejaculate” value (male cynomolgus macaques [10]; second cohort, four weeks after the last dose) was 297 ×10^6 and 71 ×10^6 and 300 ×10^6, the “Reversibility of sperm count reduction” value (male cynomolgus macaques [10]; second cohort, four weeks after the last dose, animal #1, #2, #3) was 50% and 65% and 100% and the AUC(0-t) ([11]; Rat 25 mg/kg/day) was 78800 ng·h/mL. The AUC(0-t) ([11]; Rat 50 mg/kg/day) was 91100 ng·h/mL, the IC50 [12] was 1800 nM and the inhibition at 10 µM ([12]; 10 μM) was 90.5%. For the same compound, the MTD [13] was over 1000 mg/kg, the half-life [14] was 474 min and the IC50 (cyclooxygenase 1 (COX1)) was 1410 nM. It also gave an inhibition at 10 µM (cyclooxygenase 1 (COX1); read-out: Inhibition of COX1) of 78.9%, an IC50 (cyclooxygenase 2 (COX2)) of 8.51 µM and an inhibition at 10 µM (cyclooxygenase 2 (COX2); read-out: Inhibition of COX2) of 61.8%. It also gave an IC50 [15] of 23.3 µM, an inhibition at 10 µM ([15]; 10 μM) of 34.3% and an inhibition at 3.33 µM (hERG; % of hERG inhibition Cell 1, 3.33 μM) of 6.99%. The inhibition at 10 µM (hERG; % of hERG inhibition Cell 1, 10.00 μM) was 19.5%, the inhibition at 30 µM (hERG; % of hERG inhibition Cell 1, 30.00 μM) was 35.9% and the inhibition at 3.33 µM (hERG; % of hERG inhibition Cell 2, 3.33 μM) was 16.4%. The inhibition at 10 µM (hERG; % of hERG inhibition Cell 2, 10.00 μM) was 20.2%, the inhibition at 30 µM (hERG; % of hERG inhibition Cell 2, 30.00 μM) was 43.2% and the inhibition at 3.33 µM (hERG; Average % of hERG inhibition, 3.33 μM) was 11.7%. For the same compound, the inhibition at 10 µM (hERG; Average % of hERG inhibition, 10.00 μM) was 19.9%, the IC50 [16] was over 30 µM and the “hERG inhibitor ranking” value ([16]; human) was “The compound of Example lis not considered an hERG inhibitor. The IC50 in hERG-”. The IC50 ([16]; read-out: hERG IC50, hERG-transfected HEK293 cells) was over 30 µM, the IC50 ([16]; read-out: hERG IC50, hERG-transfected HEK293 cells, patch clamp) was over 30 µM and the “solubility” value [17] was 78.57 µM. The AUC(0-inf) ([18]; Cyno 1 mg/kg) was 33,394 h * ng * mL^−1, the AUC(0-inf) ([18]; Cyno 5 mg/kg) was 175,202 h * ng * mL^−1 and the AUC(0-inf) ([18]; Cyno 10 mg/kg) was 293,423 h * ng * mL^−1. The AUC(0-inf) ([18]; male, cynomolgus monkey, plasma, Cyno 0.5 mg/kg, read-out: AUC0-inf) was 23400 ng·h/mL, the AUC(0-inf) (Single dose PK, marmoset) was 6920 ng·h/mL and the “Effect on sperm counts and recovery” value (male CD-1 mice; 2 weeks recovery, 10 mg/kg/day) was “Sperm counts started to increase; also recorded: reversibly reduces sperm counts”. For the same compound, the Epididymal sperm counts (male CD-1 mice; 24 h after last dose) was 0.51±0.27 ×10^7 and the “Reduction of epididymal sperm counts” value (male CD-1 mice; 24 h after last dose) was 90%.
